For two molecules, EC50, bioavailability and CC50 results are on record in article PMC7662321, “Andrographolide and Its 14-Aryloxy Analogues Inhibit Zika and Dengue Virus Infection” (Molecules, 2020).

Series [1] deals with DENV 2. On the set-up: method as in PMID 30396090. Particulars: HeLa cells; read-out: EC50 towards DENV 2; cited from earlier work.
Series [2] relates to DENV 2. More on the design: method as in PMID 30396090. Particulars: HepG2 cells; read-out: EC50 towards DENV 2; cited from earlier work.
On the set-up of series [3]: method as in PMID 11081986. Particulars: cited from earlier work.
Series [4] is described as follows: MTT cytotoxicity assay in Vero cells. The class given is cell-based. Particulars: African green monkey, Vero cells (monkey kidney), 24 h post-treatment. Here is the method: Cytotoxicity of each compound towards cells for four selected cell lines in the range of 1 to 500 µM was evaluated using the MTT (3-(4,5-dimethylthiazol-2-yl)-2,5-diphenyltetrazolium bromide) assay at 24 h post-treatment, in parallel with control and vehicle-treated cells (0.1% dimethyl sulfoxide (DMSO)). The 50% cytotoxic concentration (CC50) values calculated from the dose-response curve (Supplementary Figures S2–S5) are shown in Table 1. Overall, a range of cytotoxicities were seen from the four compounds across the […]. The most cytotoxic combination was ZAD-1 and BHK-21 cells, while the least cytotoxic combination was andrographolide and BHK-21 cells (Table 1).
A549 cells were cultured in ninety-six-well tissue culture plates under standard conditions until the cells reached 90% confluence. The cell culture medium was removed and then cells were incubated with various concentrations of andrographolide (1–100 μM) diluted in complete medium with FBS prior to being cultured for 24 h under standard conditions before analysis using either the Vybrant MTT Cell proliferation assay kit (V13154, Invitrogen) or the alamarBlue (Thermo Fischer Scientific, Waltham, MA, USA) assay kit according to the manufacturers recommendations. Values were determined from 8 (MTT assay) or 3 (alamarBlue) independent replicates. Negative controls (only media and media with 0.1% DMSO) and positive controls (5% DMSO) were included. To determine cell number, cell cultures were trypsinized by the addition of 0.25% Trypsin/0.1% ethylelediaminetetraacetic acid (EDTA) for 3 min and then cell suspensions were diluted with 0.4% trypan blue solution. Cells were counted using a hemocytometer. Cell morphology was additionally observed under an inverted microscope after 24 h treatment with various concentrations of each compound.
Figu re S3. Cytotoxicity of ZAD -1 (A), ZA D-2 (B), ZA D-3 (C), and andro grapholide (D) to Ve r o (monkey kidney) cells. Ve r o cells were incubated with various concentrations of each compound for 24 hrs followed by MTT cell viability assay. The experiment was undertaken independently in 4 replicates. DMSO at the same concentrations was used as a control. 10% ethanol, PBS, and milli- Q water were used as a positive control of cell death. The bars show mean ± SD. […]
In general terms: Formazan colour is commonly taken as a measure of viable cells.

Where two headings read alike, the source gives them in different places.

A word on the EC50: it is the concentration at which the effect is half-maximal. A word on the CC50: it is the concentration that lowers cell viability or growth by half. As for `C=C1CC[C@@H]2[C@](C)(CO)[C@H](O)CC[C@@]2(C)[C@@H]1C/C=C1/C(=O)OC[C@H]1O` [Andrographolide], the figures for the half-maximal effective concentration (EC50) in the series on DENV 2 [1] and with DENV 2 [2] were 22.7 µM and 21.3 µM, respectively. Moreover, in series [3], the bioavailability result is “relatively poor”. In series [4], the CC50 at 24 h stood at 469 ± 73 µM.

In the case of `C=C1CC[C@@H]2[C@]3(C)COC(C)(C)O[C@@H]3CC[C@@]2(C)[C@@H]1C/C=C1/C(=O)OC[C@@H]1Oc1c(Cl)cc(Cl)c2ccc(C)nc12` [ZAD-1], the CC50 at 24 h in series [4] is 510 ± 53 µM.
